A short description of data set [1]: in vivo. Conditions: female, NSG, mouse, iv, total radioactivity. The procedure:
(§1) Water and food were provided ad libitum. […] Tumor growth was monitored by caliper measurements.
CT scans were acquired for anatomical reference. Imaging was performed on a GENISYS^8 microPET/CT small animal scanner.
NSG mice were engrafted with OVCAR3 cells subcutaneously. […] Absorption of the radiotracer by highly perfused organs including the lungs indicate systemic circulation of the compound. Compound clearance is driven at the very early timepoints by a combination of hepatic and renal excretion. Over time, clearance is exclusively renal with retention of the compound in the tumor, and kidney.

Data set [2] addresses T1, FOLR1 (Homo sapiens, UniProt P15328). Briefly: ELISA assay of FOLR1 binding. To be noted: for EC50: read-out: EC50 (ELISA, FOLR1). The text has this: FIG. 5 is a diagram of ELISA assay of FOLR1 binding of heterobiligands.
In data set [3] the test system is OVCAR3 FOLR1+ cells (PC-3 FOLR1− cells as negative line). The data set can be described thus: Flow cytometry binding to FOLR1 (+) and FOLR1 (−) cell lines. In kind it is cell-based, human. To be noted: for binding selectivity for FOLR1 (+) cells over FOLR1 (−) cells: OVCAR3 vs PC-3, flow cytometry. The protocol:
Both the kyeet (SEQ ID NO:9) and hshta (SEQ ID NO:6)-derived biligands were tested by flow cytometry for binding to FOLR1 (+) and FOLR1 (−) cell lines (FIGS. 6 and 7). The human ovarian adenocarcinoma-derived cell line OVCAR3 has robust FOLR1 expression and was selected as the FOLR1 (+) cell line. The human prostate adenocarcinoma-derived cell line PC-3 was selected as a FOLR1 (−) cell line.

Data set [4] in a line: Maximum tolerated dose (MTD) tolerability study.
Description: In order to establish a maximum tolerated dose (MTD), a tolerability study was undertaken testing increasing amounts of the 177-Lu heterobiligand 7327 (folate-hshta-Gly-Phe-Lys(DOTA)). Animals were monitored for signs of toxicity and weighed twice weekly. […] The second and third doses were administered 21 days following the previous dose.
Efforts were undertaken to evaluate 177-Lu 6305 (folate-hshta-Lys(MPBA)-Gly-Phe-Lys(DOTA)), a compound with a brush border cleavable linker in addition to an albumin binder. […] Two separate MTD experiments were undertaken. […] A second experiment interrogated lower doses.
In order to establish a MTD, dose range finding studies were undertaken testing increasing amounts of Indi ^177Lu-7327 in healthy, non-tumor bearing female NSG mice using IV administration (FIGS. 34 and 35). Mouse body weight and behavior were monitored. […] The second and third doses were administered 21 days following the previous dose.
Data set [5] concerns OVCAR3 xenograft. The data set can be described thus: 177Lu FOLR1 radioligand therapy of OVCAR3 xenografts. Format: in vivo, mouse. The procedure:
as §1
OVCAR3 tumor bearing mice were used to study FOLR1-directed radioligand therapy (RLT) for treatment of ovarian cancer. Animals were administered a single dose of heterobiligand (vehicle control) or 111, 37, 18.5, 9.25, or 3.7 MBq [^177Lu]DOTA-labeled heterobiligand. Mice received the dose intravenously (i.v.) via the tail vein. To monitor the effect of the RLT, tumor size measurements were taken twice weekly and body weights were measured.
Single dose treatments at 18.5 MBq/nmol specific activity. OVCAR3 mouse model was used. 10^7 cell tumors were implanted in the mice one month before administration of ^177Lu-#6305. Five mice each were administered Cold #6305, 9.25 MBq Lu177-#6305, and 14.8 MBq Lu177-#6305, and two mice were administered 29.6 MBq Lu177-#6305. Tumor growth and body weight were then monitored.
Female NSG mice were implanted subcutaneously with OVCAR3 cells. Once tumors reached volumes of 200 mm^3, the animals were treated with 177-Lu 7327. Three treatment arms of 9.25 MBq, 14.8 MBq, and 29.6 MBq were studied.

In data set [6] the test system is OVCAR3 xenograft. Described as above. Format: in vivo, mouse. This is another data set of the same source.
Data set [7] addresses T1, FOLR1. Briefly: Folic acid competition ELISA. In kind it is binding. The procedure: A competition experiment was conducted to further understand the binding kinetics of the lead heterobiligand (folate-hshta (SEQ ID NO:6) Nterm heterobiligand).

Positions of bridges follow the written chain, without caps; N, C: chain ends. Non-standard residues stand in square brackets, D forms with d. Residues, ends and D or L forms follow the SMILES beside them. Triazole bridges read from a SMILES are 1,4-linked. *: point of attachment. Biotin = O=C1N[C@H]2[C@H](CS[C@H]2CCCCC(=O)*)N1; Lys(N3) = [N-]=[N+]=NCCCC[C@H](N)C(=O)O; AEEEA = NCCOCCOCCOCC(=O)O; Pra = C#CC[C@H](N)C(=O)O

T1 sequence (P15328 25-234): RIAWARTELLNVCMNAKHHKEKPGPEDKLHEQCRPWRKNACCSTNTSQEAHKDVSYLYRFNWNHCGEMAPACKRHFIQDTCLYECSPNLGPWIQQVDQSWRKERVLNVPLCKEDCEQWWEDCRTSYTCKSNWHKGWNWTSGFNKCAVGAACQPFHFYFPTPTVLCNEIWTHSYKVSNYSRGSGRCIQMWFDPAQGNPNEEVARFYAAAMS

As to `C[C@H](O)[C@H]1NC(=O)[C@@H](Cc2cnc[nH]2)NC(=O)[C@@H](CO)NC(=O)[C@@H](Cc2cnc[nH]2)NC(=O)[C@@H](NC(=O)CC[C@H](NC(=O)c2ccc(NCc3cnc4nc(N)[nH]c(=O)c4n3)cc2)C(=O)O)Cc2cn(nn2)CCCC[C@@H](C(=O)NCCOCCOCCOCC(=O)N[C@@H](CCCCNC(=O)CO/N=C/c2ccc([18F])cc2)C(N)=O)NC(=O)[C@@H](C)NC1=O`, the tissue uptake per volume at 4 h in data set [1] (accumulation in the tumor) was about 4 %ID/mL; in data set [1] (radiotracer accumulation in the tumor), 3.5 to 5.5 %ID/mL.

Turning to `C[C@H](O)[C@H]1NC(=O)[C@@H](CCC(=O)O)NC(=O)[C@@H](CCC(=O)O)NC(=O)[C@@H](Cc2ccc(O)cc2)NC(=O)[C@@H](CCCCN)NC(=O)[C@@H](NC(=O)[C@H](Cc2cn(CCOCCOCCOCCNC(=O)CC[C@H](NC(=O)c3ccc(NCc4cnc5nc(N)[nH]c(=O)c5n4)cc3)C(=O)O)nn2)NC(=O)CCOCCOCCOCCOCCOCCOCCOCCOCCOCCOCCNC(=O)CCOCCOCCOCCOCCOCCOCCOCCOCCOCCOCCNC(=O)CCCC[C@@H]2SC[C@@H]3NC(=O)N[C@@H]32)Cc2cn(nn2)CCCC[C@@H](C(N)=O)NC1=O` [folate-kyeet heterobiligand], the concentration for a half-maximal effect (EC50) in data set [2] came out at 0.149 nM. In data set [3] (40 nM of the test article), the “binding selectivity for FOLR1 (+) cells” value is on record as “Virtually complete selectivity”. For the same compound, the “binding selectivity for FOLR1 (+) cells over FOLR1 (−) cells” value (shortened to “binding selectivity for FOLR1 … (−) cells”) in data set [3] was “high selectivity”.

Turning to `C[C@H](O)[C@H]1NC(=O)[C@@H](CCC(=O)O)NC(=O)[C@@H](CCC(=O)O)NC(=O)[C@@H](Cc2ccc(O)cc2)NC(=O)[C@@H](CCCCN)NC(=O)[C@@H](NC(=O)COCCOCCOCCNC(=O)CCCC[C@@H]2SC[C@@H]3NC(=O)N[C@@H]32)Cc2cn(nn2)CCCC[C@@H](C(N)=O)NC1=O` [kyeet] ({Biotin-AEEEA}-[Pra][dK][dY][dE][dE][dT][Lys(N3)]-NH2; triazole 1-7), the “binding selectivity for FOLR1 … (−) cells” value in data set [3] is reported as “slight binding selectivity”.

As for `C[C@H](O)[C@H]1NC(=O)[C@@H](Cc2c[nH]cn2)NC(=O)[C@@H](CO)NC(=O)[C@@H](Cc2c[nH]cn2)NC(=O)[C@@H](NC(=O)COCCOCCOCCNC(=O)CCCC[C@@H]2SC[C@@H]3NC(=O)N[C@@H]32)Cc2cn(nn2)CCCC[C@@H](C(N)=O)NC(=O)[C@@H](C)NC1=O` [hshta] ({Biotin-AEEEA}-[Pra][dH][dS][dH][dT][dA][Lys(N3)]-NH2; triazole 1-7), the “affinity for recombinant human FOLR protein in ELISA” value in data set [2] (tested alone) is reported as “low micromolar affinity”. In addition, in data set [3], the “binding selectivity for FOLR1 … (−) cells” value is reported as “higher selectivity for FOLR1 than kyeet”.

For “Folate-hshta-G-F-K(^177Lu-DOTA)-OH [^177Lu-#7327]”, the tolerability result in data set [4] (doses of 111 MBq and 185 MBq) is “not tolerated”; in data set [4] (doses of 111 MBq and 185 MBq, listed as Indi ^177Lu-7327), “lost substantial body weight”; in data set [4] (repeated doses of 14.8, 22.2, 29.6, and 37 MBq, 21 days apart) it was “well tolerated”. Further, the tolerated radioactive doses result in data set [4] (three treatments, healthy non-tumor bearing female NSG mice) is on record as “up to 111 MBq”. The caliper-measured tumor volume result in data set [5] (29.6 MBq arm, following the second dose) was “stabilized and then fell”. Moreover, the “time to statistically significant differential between treated and untreated” value in data set [5] (29.6 MBq arm, p≤0.05) is given as 12 days post injection. For the same compound, the “loss of body weight” value in data set [5] (29.6 MBq dose, two doses) is given as 5-10%. Moreover, the “body weights of treated mice” value in data set [5] ((+/−10%)) is recorded as “normal body weights”. Further, the tumor response result in data set [5] (two treatments at 29.6 MBq followed by a third treatment at 74 MBq) was “Tumor regression”; in data set [6] (two treatments at 29.6 MBq), “tumor stasis”; in data set [6] (two treatments at 74 MBq) it was “Tumor stasis”. Besides, the “body weight loss after second dose” value in data set [6] (9.25 MBq and 14.8 MBq arms, second dose 21 days after first) is listed as “minimal”. The “tolerability of first dose” value in data set [6] (9.25 MBq, 14.8 MBq, and 29.6 MBq arms) is on record as “well tolerated”. Moreover, the “tumor sizes after additional treatment on day 24” value in data set [6] (46.3, 74 and 148 MBq groups) is “shrinking tumor sizes”. In data set [6] (46.3 MBq group, elevated dose), the tumor volumes result is given as “stable tumor volumes”. The “decrease of tumor volumes, on average” value in data set [6] (74 MBq and 148 MBq arms, single elevated dose at 45 days post injection) is 50%. For the same compound, the body weight result in data set [6] (74 MBq and 148 MBq, elevated dose) is “modest body weight loss”. In data set [6] (74 MBq arm), the “time to statistically significant differential between treated and control” value was found to be 24 days post-injection. For the same compound, the “body weight after second dose” value in data set [6] (highest dose (29.6 MBq)) was “modest loss of body weight that stabilized and then rebounded”. The tumor volume entry was “decrease in tumor volume” in data set [6] (two doses at 74 MBq, 21 days apart, vs 0 MBq control); “dose dependent decrease in tumor volume” in data set [6] (two doses, arms of 9.25, 14.8, and 29.6 MBq). The “outcompeting native folate for receptor binding” value in data set [7] was “approximately 500 fold”.

Consider `C[C@H](O)[C@H]1NC(=O)[C@@H](Cc2ccc(O)cc2)NC(=O)[C@@H](CCCNC(=N)N)NC(=O)[C@@H](CCC(=O)O)NC(=O)[C@@H](CC(=O)O)NC(=O)[C@@H](NC(=O)[C@H](Cc2cn(CCOCCOCCOCCNC(=O)CC[C@H](NC(=O)c3ccc(NCc4cnc5nc(N)[nH]c(=O)c5n4)cc3)C(=O)O)nn2)NC(=O)CCOCCOCCOCCOCCOCCOCCOCCOCCOCCOCCNC(=O)CCOCCOCCOCCOCCOCCOCCOCCOCCOCCOCCNC(=O)CCCC[C@@H]2SC[C@@H]3NC(=O)N[C@@H]32)Cc2cn(nn2)CCCC[C@@H](C(N)=O)NC1=O` [Folate-deryt], for which the 50% effective concentration (EC50) in data set [2] was 0.28 nM. Besides, the “binding selectivity for FOLR1 … (−) cells” value in data set [3] is “excellent selectivity”.

As to `C[C@H](O)[C@H]1NC(=O)[C@@H](Cc2c[nH]cn2)NC(=O)[C@@H](CO)NC(=O)[C@@H](Cc2c[nH]cn2)NC(=O)[C@@H](NC(=O)[C@H](Cc2cn(CCOCCOCCOCCNC(=O)CC[C@H](NC(=O)c3ccc(NCc4cnc5nc(N)[nH]c(=O)c5n4)cc3)C(=O)O)nn2)NC(=O)CCOCCOCCOCCOCCOCCOCCOCCOCCOCCOCCNC(=O)CCOCCOCCOCCOCCOCCOCCOCCOCCOCCOCCNC(=O)CCCC[C@@H]2SC[C@@H]3NC(=O)N[C@@H]32)Cc2cn(nn2)CCCC[C@@H](C(N)=O)NC(=O)[C@@H](C)NC1=O` [Tz heterobiligand], the EC50 in data set [2] worked out at 0.107 nM. In addition, the “binding selectivity for FOLR1 … (−) cells” value in data set [3] was “high selectivity”.

For the origin of these results see patent US11766414B2, “Compositions, delivery systems, and methods useful in tumor therapy” (Indi Molecular, Inc., priority 2020, dated 2023).
